According to patent publication US8096419B2, “Compound” (PCI Biotech AS, priority 2001, dated 2012):
“Also recorded” adds a separate entry of the source.

How the values were obtained:
V79 cells [1] = test: Cell survival by colony-forming test after photosensitizer and light; format: cell-based, Chinese hamster
Description: (§1) Cells of the established line V79 (ATCC CCL-93) derived from Chinese hamster lung fibroblasts were used. The cells were grown in MEM medium containing 10% foetal calf serum (FCS from Gibco, Paisley, UK), 100 U ml^−1 penicillin and 100 μg ml^−1 streptomycin (Gibco) at 37° C. in an incubator flushed with 5% CO2 in air. The cells were subcultured twice a week.
The cells were inoculated in 25 cm^2 flasks (Nunclon, Denmark) containing MEM medium with 10% FCS and left at 37° C. for 4-5 hours for proper attachment to the substratum. Subsequently, the cells were washed 3 times with medium and exposed to 1 μg/ml TPPS2a or TPCS2a in serum-containing medium for 18 hours. The cells were subsequently washed 3 times with the sensitizer-free medium and incubated for 1 hour before light exposure. The cells were then exposed to red light (Phillips TL 20 W/09) filtered through a Cinemoid 35 filter or blue light (Appl. Photophysics, Nood. 3026, London). […]
Cell survival was measured by the colony-forming test as described by Berg et al. (Photochem. Photobiol. 53: 203-210, 1991). […] The cells were then fixed in ethanol, stained with methylene blue and the colonies counted. Inhibition of protein synthesis was assessed by [^3H]-leucine incorporation into proteins, measured at 24 hours post light exposure as described by Llorente et al. (FEBS Lett. 431: 200-204, 1998).

V79 cells [2] = test: Inhibition of protein synthesis by [3H]-leucine incorporation (PCI of gelonin); format: cell-based, Chinese hamster
Description: as §1
The cells were inoculated in 25 cm^2 flasks (Nunclon, Denmark) containing MEM medium with 10% FCS and left at 37° C. for 4-5 hours for proper attachment to the substratum. Subsequently, the cells were washed 3 times with medium and exposed to 1 μg/ml TPPS2a or TPCS2a in serum-containing medium for 18 hours. The cells were subsequently washed 3 times with the sensitizer-free medium and incubated for 1 hour before light exposure. The cells were then exposed to red light (Phillips TL 20 W/09) filtered through a Cinemoid 35 filter or blue light (Appl. Photophysics, Nood. 3026, London). The fluence rates reaching the cells were 1.35 mW/cm^2 and 1.5 mW/cm^2 from the red and the blue lamps respectively.
Cell survival was measured by the colony-forming test as described by Berg et al. (Photochem. Photobiol. 53: 203-210, 1991). 1500 cells were inoculated in 25 cm^2 plastic tissue-culture flasks and treated with the photosensitizer and light as described above. After photochemical treatment the V79 cells were left for 5 days at 37° C. in serum-containing culture medium to allow for formation of countable colonies. The cells were then fixed in ethanol, stained with methylene blue and the colonies counted. Inhibition of protein synthesis was assessed by [^3H]-leucine incorporation into proteins, measured at 24 hours post light exposure as described by Llorente et al. (FEBS Lett. 431: 200-204, 1998).

[3] = Absorption spectra on photochemical reduction of TPPS2a; format: physicochemical; conditions: benzene/TEA, peak shifted from 646 nm to 655 nm
Description: A mixture of 950 μl benzene/triethylamine (TEA) (18:7), 32 μl dimethyl sulfoxide (DMSO) and 18 μl TPPS2a (from a solution of 1 mg/ml in DMSO) was prepared and saturated with nitrogen for 5 min in a 1 ml cuvette. The mixture was then exposed to light from a 500 W high pressure Xenon lamp fitted to a Bausch and Lomb grating monochromator. The cuvette was exposed to 545±15 nm light at 15 W/m^2. The fluence rate was monitored by means of a UDT 11 A photodetector with a 223 radiometric filter. The absorption spectra was measured regularly by a Perkin-Elmer Lambda 15 UV/VIS spectrophotometer. The light pass was 1 cm.
In accordance with the method described by Harel et al. (Photochem. Photobiol. 23: 337-341, 1976), TPPS2a was exposed to light in a solution of triethylamine (TEA) in benzene saturated with nitrogen. The solution was exposed to light of 545 nm in a cuvette as described above in “Materials and Methods”.

V79 cells [4] = conditions: Berg et al. Cancer Res. 59: 1180-1183, 1999; cited from earlier work

Tetraphenyl chlorin disulfonate [TPCS2a]
sensitivity of treated cells to photoinactivation with blue light relative to TPPS2a (V79 cells [1]; 18 hours incubation with sensitizer, 1 hour sensitizer-free medium, blue light, versus TPPS2a): equally sensitive; also recorded: equally efficient
reduction induced by TPCS2a alone in the clonogenicity assay (V79 cells [1]; TPCS2a alone): not observed
potentiation of the cytotoxicity of gelonin by TPCS2a and light (V79 cells [2]; 1 μg/ml TPCS2a plus 1 μg/ml gelonin, red light, protein synthesis 24 hours after exposure to light): strongly potentiate
reduction in protein synthesis induced by TPCS2a alone (V79 cells [2]; 1 μg/ml TPCS2a, without gelonin): 20%
increase in the extinction coefficient of band I of the Q-bands versus TPPS2a [3]: 5.8 fold

gelonin: type I ribosome-inactivating protein toxin, transfer molecule for PCI
reduction of protein synthesis by gelonin alone (V79 cells [2]; 1 μg/ml gelonin for 18 hours): about 10%
toxicity of gelonin alone or in combination with light (literature) (V79 cells [4]): low toxicity
